“Also recorded” adds a separate entry of the source.
Assays:
[1] = biological target: T1, hyaluronidase of bovine origin (BTH, Bovine Testis hyaluronidase) (Bos taurus, UniProt Q2YDK3); assay: Assay of hyaluronidase activity (residual HA, HA-ELISA); type: biochemical
T1 sequence (Q2YDK3 1-553): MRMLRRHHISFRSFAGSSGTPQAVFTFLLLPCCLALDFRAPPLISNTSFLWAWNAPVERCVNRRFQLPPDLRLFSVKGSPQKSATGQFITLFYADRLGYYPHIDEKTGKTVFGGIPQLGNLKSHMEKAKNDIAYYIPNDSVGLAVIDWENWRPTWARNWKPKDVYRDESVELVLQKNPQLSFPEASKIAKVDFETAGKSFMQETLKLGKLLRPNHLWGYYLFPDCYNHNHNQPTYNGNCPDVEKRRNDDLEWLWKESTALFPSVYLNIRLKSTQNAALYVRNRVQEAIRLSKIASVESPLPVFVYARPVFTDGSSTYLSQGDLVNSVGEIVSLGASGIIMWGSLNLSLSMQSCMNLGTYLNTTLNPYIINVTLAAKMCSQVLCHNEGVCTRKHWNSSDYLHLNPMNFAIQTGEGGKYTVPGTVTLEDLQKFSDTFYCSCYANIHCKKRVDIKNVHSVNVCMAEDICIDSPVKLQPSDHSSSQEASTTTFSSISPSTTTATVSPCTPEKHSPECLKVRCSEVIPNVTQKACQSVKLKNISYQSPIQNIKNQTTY
Description: Hyaluronidase activity is measured by the assay of residual hyaluronic acid (HA). The substrate is fixed to a carrier then placed in the presence of an enzyme and a quantity of compound to be tested. The residual HA i.e. the non-hydrolyzed HA is assayed using a HA-Elisa detection system: Hyaluronan enzyme-linked immunosorbent assay (Echelon Biosciences®).
0.5 units of hyaluronidase of bovine origin (BTH, Bovine Testis hyaluronidase) were pre-incubated at 37° C. with the compound to be tested. This mixture was deposited on the HA fixed to the surface of a microplate well. The enzymatic reaction took place at pH 7.2n at 37° C. Washing was followed by a recognition step of residual HA by hyaluronectin (NH). The quantity of bonded NH was measured by ELISA using an anti-NH antibody conjugated with alkaline phosphatase. The p-nitrophenyl phosphate disodium salt (pnNpp) substrate of the phosphatase allows spectrometric detection at 405 nm. (Delpech B et al., Analytical Biochemistry 149, 555(565 (1985); Robert Stern et al. Analytical Biochemistry 251, 263-269 (1997)). OD intensity was correlated with the quantity of residual HA. The quantity of residual HA is directly linked to enzymatic activity. In the presence of an inhibitor, the larger the quantity of residual HA the more the sample is inhibiting. A percentage inhibition of hyaluronidase will be expressed.
Therefore the net enzymatic activities were calculated which represent the difference in mean gross activity without enzyme and the gross activity of the enzyme with or without the compound to be tested.
The percentage enzymatic inhibition related to the compound to be tested was calculated as follows: % inhibition=(Maximum net enzymatic activity)−Net enzymatic activity in the presence of the compound to be tested)/Maximum net enzymatic activity.
where the maximum net enzymatic activity represents the mean net enzymatic activity of 0.5 U.

B16-F10 cells = assay: Assay of melanin in B16-F10 cells (colorimetric, α-MSH stimulated); type: cell-based, murine; details: for inhibition at 50 µM / inhibition at 100 µM / IC50 / inhibition at 10 µM / inhibition at 20 µM: Mus musculus; for inhibition at 50 µM / inhibition at 100 µM / inhibition at 10 µM / inhibition at 20 µM: B16-F10, 72 hours, read-out: Percentage inhibition of intracellular melanin; for IC50: B16-F10, α-MSH stimulated, read-out: IC50 intracellular melanin
Description: Similarly, to evidence the depigmenting activity of the compounds of general formula (I) according to the invention, the effect of these compounds was measured on the synthesis of melanin by colorimetric assay on a cell line of murine melanomas: line B16-F10.
This is a test to measure the synthesis of melanin by colorimetric assay on a cell line of murine melanomas: line B16-F10. This test allows the evaluation of the depigmenting property of active ingredients.
The B16-F10 cells were seeded onto 96-well plates in DMEM medium supplemented with FCS (fetal calf serum) and incubated 24 hours at 37° C., 5% CO2. The cells were then stimulated with α-MSH (to stimulate the synthesis of melanin, the stimulation observed was about 150%) and treated 72 hours with the active ingredients to be tested. Each concentration of active ingredient was tested at least in triplicate. Total melanin followed by intracellular melanin dissolved in lysis buffer were then assayed by absorbency reading at 405 nm. The total proteins were determined in the lysate and the results are expressed in mg melanin/mg proteins. The percentage activity was calculated as follows: […]
A negative value indicates an inhibition, whereas a positive value indicates induced synthesis of melanin.

[2] = system: Human dermal papilla cells; assay: In vitro stimulation of the proliferation of dermal papilla cells (BrdU incorporation); type: cell-based
Description: Human dermal papilla cells (Promocell) were placed in culture and held in early passage culture in DMEM medium supplemented with 10% FCS. They were then seeded in a 96-well plate in DMEM medium supplemented with 10% FCS for 12 h. The culture medium was replaced by serum-free DMEM medium then by DMEM supplemented with 1% FCS and molecules 1, 2, 3 and 4 at the different tested concentrations After incubation for 60 h, cell proliferation was evaluated by incorporation of BrdU.
The diagrams in appended FIG. 1 show the increase in BrdU incorporation and the stimulated cellular proliferation of the cells in the presence of the different molecules (as a percent of the control).

human hair follicle [3] = assay: Stimulation of the growth of the human hair follicle (Philpott culture); type: cell-based; details: 15 μM; for D4 % activity (hair growth stimulation compared with the control) / D4 % growth: 4 days' culture; for D8 % activity (hair growth stimulation compared with the control) / D8 % growth: 8 days' culture
Description: (§1) Biopsies of the occipital region of a human scalp were obtained from operative waste. The hair follicles were isolated by micro-dissection under binocular magnification. They were individually placed in culture following Philpott's technique (Philpott M P et al, J Cell Sci. 97:463-471, 1990). The hair follicles in anagen phase were incubated in 24-well culture dishes in the presence of William's medium supplemented with 10 μg/mL Insulin, 10 μg/mL Transferrin, 10 ng/mL Hydrocortisone, 1 mM Glutamax I, 100 U/mL Penicillin, 100 μg/mL Streptomycin, 250 ng/mL Amphotericin B and in the presence of molecules 3 or 4 for 11 days. The incubation medium was regularly renewed. The lengthening (in μm) of each hair follicle was measured at 4 and 8 days' culture in captured images of the hair follicles.
The diagrams in appended FIG. 2 show the effect of molecules 3 and 4 on the lengthening of hair follicles after incubation for 4 days and for 8 days.
The following table (Table 5) gives the growth percentages obtained for each treatment condition and the percentages for stimulated hair growth obtained with molecules 3 and 4 compared with the control.

human hair follicle [4] = assay: Evaluation of hair bulb degeneration (apoptotic follicles at D11); type: cell-based
Description: as §1
The degeneration of the follicle when kinetics cease after 11 culture days, is evaluated by observation of morphological damage of the hair bulb (rounding, deformation). The percentage apoptosis is calculated by counting the number of apoptotic hair follicles relative to the total number of follicles

[5] = 0.5 U BTH, read-out: Enzymatic inhibition (mean as a percentage)

| Structure (SMILES) | Effect on hyaluronidase [1] | inhibition at 10 µM [1, 5] [%] | inhibition at 50 µM [1, 5] [%] | Inhibition of the synthesis of intracellular melanin compared with vitamin C (B16-F10 cells) | inhibition at 50 µM (B16-F10 cells) [%] | inhibition at 100 µM (B16-F10 cells) [%] | IC50 (B16-F10 cells) [µM] | inhibition at 10 µM (B16-F10 cells) [%] | inhibition at 20 µM (B16-F10 cells) [%] | Proliferation of dermal papilla cells [2] | D4 % activity (hair growth stimulation compared with the control) (human hair follicle [3]) [%] | D4 % growth (human hair follicle [3]) [%] | D8 % activity (hair growth stimulation compared with the control) (human hair follicle [3]) [%] | D8 % growth (human hair follicle [3]) [%] | further results |
| --- | --- | --- | --- | --- | --- | --- | --- | --- | --- | --- | --- | --- | --- | --- | --- |
| CCCCCCCCCCCCCCCC(=O)OC[C@H](O)[C@H]1OC(=O)C(O)=C1O [6-ascorbyl palmitate, reference compound] | advantageously inhibits hyaluronidase, from 10 to 250 μM, with dose effect | 31 | 71 |  |  |  |  |  |  |  |  |  |  |  | inhibition at 25 µM ([1]; 25 μM, 0.5 U BTH, read-out: Enzymatic inhibition (mean as a percentage)): 57%; inhibition at 100 µM ([1]; 100 μM, 0.5 U BTH, read-out: Enzymatic inhibition (mean as a percentage)): 73%; inhibition at 200 µM ([1]; 200 μM, 0.5 U BTH, read-out: Enzymatic inhibition (mean as a percentage)): 79%; inhibition at 250 µM ([1]; 250 μM, 0.5 U BTH, read-out: Enzymatic inhibition (mean as a percentage)): 112% |
| CCCCCCCC/C=C\CCCCCCCC(=O)OC1=C(O)C(C2COC(C)(C)O2)OC1=O (centres unmarked) [Molecule 6, 5-(2,2-dimethyl-1,3-dioxolan-4-yl)-4-hydroxy-2-oxo-2,5-dihydrofuran-3-yl oleate] | strongly inhibit hyaluronidase; also recorded: equivalent to or more active than ascorbyl palmitate | 34 | 106 | greater than that of vitamin C | 7 | 49 | 105 |  |  |  |  |  |  |  |  |
| CCCCC/C=C\C/C=C\CCCCCCCC(=O)OC1=C(O)C(C2COC(C)(C)O2)OC1=O (centres unmarked) [Molecule 5, (9Z,12Z)-5-(2,2-dimethyl-1,3-dioxolan-4-yl)-4-hydroxy-2-oxo-2,5-dihydrofuran-3-yl octadeca-9,12-dienoate] | strongly inhibit hyaluronidase; also recorded: equivalent to or more active than ascorbyl palmitate | 31 | 76 | greater than that of vitamin C | 35 | 78 | 66 | 4 | 13 |  |  |  |  |  |  |
| CCCCC/C=C\C/C=C\C/C=C\CCCCC(=O)OC1=C(OC(=O)CCCC/C=C\C/C=C\C/C=C\CCCCC)C(C2COC(C)(C)O2)OC1=O (centres unmarked) [Molecule 3, dioctadeca-6,9,12-trienoate of (6Z,6′Z,9Z,9′Z,12Z,12′Z)-2-(2,2-dimethyl-1,3-dioxolan-4-yl)-5-oxo-2,5-dihydrofuran-3,4-diyl] |  |  |  | greater than that of vitamin C |  |  | 20 | 25 | 50 | induce proliferation of the cells but to a lesser extent than molecules 1 and 4 | 25 | 52 | 18 | 85 |  |
| CC/C=C\C/C=C\C/C=C\CCCCCCCC(=O)OC1=C(OC(=O)CCCCCCC/C=C\C/C=C\C/C=C\CC)C(C2COC(C)(C)O2)OC1=O (centres unmarked) [Molecule 2, dioctadeca-9,12,15-trienoate of (9Z,9′Z,12Z,12′Z,15Z,15′Z)-2-(2,2-dimethyl-1,3-dioxolan-4-yl)-5-oxo-2,5-dihydrofuran-3,4-diyl] |  |  |  | greater than that of vitamin C |  |  | 20 | 11 | 53 | induce proliferation of the cells but to a lesser extent than molecules 1 and 4 |  |  |  |  |  |
| CCCCCCCC/C=C\CCCCCCCC(=O)OC1=C(OC(=O)CCCCCCC/C=C\CCCCCCCC)C(C2COC(C)(C)O2)OC1=O (centres unmarked) [Molecule 4, dioleate of (Z)-2-(2,2-dimethyl-1,3-dioxolan-4-yl)-5-oxo-2,5-dihydrofuran-3,4-diyl] | strongly inhibit hyaluronidase; also recorded: equivalent to or more active than ascorbyl palmitate | 72 | 111 | greater than that of vitamin C | 44 |  | 53 | -16 | 6 |  | 19 | 51 | 12 | 84 | Number of apoptotic bulbs at D11 (Number of total follicles) (human hair follicle [4]; 15 μM, 11 days of incubation): 6 (12); % apoptosis (human hair follicle [4]; 15 μM, 11 days of incubation, control 75): 50%; Effect on hair degeneration (human hair follicle [4]; 11 days): marked limiting of hair degeneration; Proliferation stimulation of dermal papilla cells ([2]; 6.25 μM, 60 h): 113.9% |

Source: US8722729B2, “Unsaturated fatty acid monoesters and diesters on ascorbic acid and cosmetic uses thereof” (Pierre Fabre Dermo-Cosmetique, priority 2009, dated 2014)
